Reference: the NIST ThermoML archive (doi:10.1021/je400970y)

Details: Liquid, Closed cell (Static) method

C=C(F)C(F)(F)F [2,3,3,3-tetrafluoro-1-propene]
Details	vapor or sublimation pressure [kPa]
248.17 K	123.1
251.18 K	138.8
254.21 K	156.9
258.2 K	184.3
260.18 K	198.3
262.18 K	213.8
264.2 K	229.9
266.25 K	248.1
270.26 K	286
271.16 K	295.3
273.21 K	316.5
275.22 K	338.2
277.22 K	361.5
279.14 K	385.1
281.23 K	411.4
285.18 K	466.2
287.22 K	496.4
289.22 K	526.7
291.22 K	558.8
293.25 K	593.4
295.25 K	627.9
297.55 K	672.2
299.19 K	703
301.32 K	746.2
303.25 K	786.5
305.11 K	825.8
306.31 K	852.9
309.51 K	927.9
311.49 K	976.6
313.43 K	1026.2
315.55 K	1082.8
317.23 K	1128.4
319.14 K	1182.9
321.02 K	1237.8
323.79 K	1322.3
325.56 K	1380
326.82 K	1420.8
328.86 K	1490.2
330.87 K	1560.1
332.97 K	1635.8
334.99 K	1711.2
336.99 K	1788.7
338.97 K	1868.1
341.06 K	1955.5
343.04 K	2040.1
345.05 K	2129.1
347.06 K	2221.2
349.05 K	2315.9
351.03 K	2412.1
353.08 K	2516.4
355.03 K	2618.5
357.23 K	2738.3
359.34 K	2856.6
361.05 K	2955.2

CC(F)(Cl)C(F)(F)F (stereo not given) [2-chloro-1,1,1,2-tetrafluoropropane]
Details	vapor or sublimation pressure [kPa]
268.19 K	49.7
270.19 K	54.4
273.18 K	60.5
275.18 K	66.4
278.16 K	74.3
281.15 K	83.9
283.12 K	88.9
286.13 K	100.5
288.11 K	106.5
290.12 K	116
292.13 K	124.6
295.09 K	138.2
298.12 K	151.8
300.09 K	163.5
302.11 K	175.3
304.25 K	185.9
307.02 K	203.2
308.9 K	215.2
310.68 K	227.6
313.35 K	247.9
315.28 K	261.8
318.34 K	286.5
320.84 K	307.9
324.02 K	334.9
325.63 K	351.9
328.81 K	382.6
330.46 K	401.6
333.63 K	435.9
335.25 K	456.6
338.51 K	495.5
339.67 K	510.3
341.68 K	536.4
343.28 K	559.6
345.27 K	588.1
347.07 K	615.8
349.07 K	645.9
